In US10844064B2, “sGC stimulators” (Cyclerion Therapeutics, Inc., priority 2014, dated 2020):

The molecules below were run against T1, soluble guanylate cyclase (sGC) (Homo sapiens, UniProt Q02108+Q02153) (assay: sGC-HEK-cGMP assay with LC/MS detection (Example 2A)). Conditions: HEK293 cells, 10 μM DETA-NONOate, 20 min; concentration eliciting 50% of high control response (30 μM Compound Y); read-out: Absolute EC50 (nM) - binned.
T1 construct: endogenously expressing soluble guanylate cyclase (sGC); endogenous in cells; host or cells: HEK293
T1 sequence (Q02108 1-690): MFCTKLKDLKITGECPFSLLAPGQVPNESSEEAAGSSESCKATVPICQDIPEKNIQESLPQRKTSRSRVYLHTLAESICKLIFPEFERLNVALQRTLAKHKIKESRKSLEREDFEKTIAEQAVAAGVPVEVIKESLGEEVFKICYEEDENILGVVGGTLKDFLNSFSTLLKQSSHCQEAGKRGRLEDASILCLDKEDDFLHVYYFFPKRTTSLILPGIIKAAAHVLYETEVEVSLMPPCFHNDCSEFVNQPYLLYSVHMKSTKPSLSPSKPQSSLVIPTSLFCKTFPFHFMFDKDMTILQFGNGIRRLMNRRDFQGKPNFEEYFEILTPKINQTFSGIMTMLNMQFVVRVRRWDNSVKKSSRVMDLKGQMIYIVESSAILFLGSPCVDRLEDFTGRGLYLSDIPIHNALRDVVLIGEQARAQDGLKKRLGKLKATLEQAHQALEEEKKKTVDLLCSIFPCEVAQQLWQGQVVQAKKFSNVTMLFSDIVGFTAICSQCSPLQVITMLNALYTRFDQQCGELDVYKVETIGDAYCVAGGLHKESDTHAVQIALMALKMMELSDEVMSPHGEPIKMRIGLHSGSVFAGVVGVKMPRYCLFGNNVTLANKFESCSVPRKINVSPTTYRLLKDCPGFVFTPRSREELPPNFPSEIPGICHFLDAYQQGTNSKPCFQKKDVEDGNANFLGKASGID
T1 sequence (Q02153 1-619): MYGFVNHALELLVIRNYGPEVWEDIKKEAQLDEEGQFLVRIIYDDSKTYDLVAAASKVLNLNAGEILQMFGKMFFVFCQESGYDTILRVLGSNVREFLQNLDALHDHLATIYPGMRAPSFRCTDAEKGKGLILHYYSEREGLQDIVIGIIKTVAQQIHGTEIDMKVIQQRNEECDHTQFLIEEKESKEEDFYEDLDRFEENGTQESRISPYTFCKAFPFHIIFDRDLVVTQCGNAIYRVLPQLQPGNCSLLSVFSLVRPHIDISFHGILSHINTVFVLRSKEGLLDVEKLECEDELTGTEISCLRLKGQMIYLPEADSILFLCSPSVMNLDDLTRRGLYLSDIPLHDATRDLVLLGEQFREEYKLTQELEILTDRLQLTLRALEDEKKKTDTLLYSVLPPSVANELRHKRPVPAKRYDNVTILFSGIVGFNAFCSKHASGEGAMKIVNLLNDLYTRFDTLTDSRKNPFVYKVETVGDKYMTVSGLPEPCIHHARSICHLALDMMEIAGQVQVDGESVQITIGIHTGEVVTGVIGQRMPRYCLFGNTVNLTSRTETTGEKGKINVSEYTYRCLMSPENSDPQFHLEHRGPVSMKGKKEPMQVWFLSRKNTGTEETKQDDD
Format: cell-based
Description: Human embryonic kidney cells (HEK293), endogenously expressing soluble guanylate cyclase (sGC), were used to evaluate the activity of test compounds. Compounds stimulating the sGC enzyme should cause an increase in the intracellular concentration of cGMP. HEK 293 cells were seeded in Dulbecco's Modification of Eagle's Medium supplemented with fetal bovine serum (10% final) and penicillin (100 U/mL)/streptomycin (100 μg/mL) in a 50 μL, volume at a density of 1.5×10^4 cells/well in a poly-D-lysine coated 384 well flat bottom plate. Cells were incubated overnight at 37° C. in a humidified chamber with 5% CO2. Medium was aspirated and cells were washed with 1× Hank's Buffered Saline Salt Solution (50 μL). Cells were then incubated for 15 minutes at 37° C. with 50 μL of a 0.5 mM 3-isobutyl-1-methylxanthine (IBMX) solution. Test article and Diethylenetriamine NONOate (DETA-NONOate) solutions (x μM concentration for test article solution and 10 μM concentration for DETA-NONOate solution; wherein x is one of the following concentrations);
were then added to the assay mixture and the resulting mixture incubated at 37° C. for 20 minutes. After the 20 minute incubation, the assay mixture was aspirated and 10% acetic acid containing 150 ng/mL+3-cGMP (internal standard for LCMS) (50 μL) was added to the cells. The plate was incubated at 4° C. for 30 minutes in the acetic acid solution to stop the reaction and lyse the cells. The plates were then centrifuged at 1,000 g for 3 minutes at 4° C. and the supernatant transferred to a clean reaction plate for LCMS analysis.
cGMP concentrations were determined from each sample using the LCMS conditions below (Table 2) and calculated standard curve. The standard curve was prepared in 10% acetic acid with 150 ng/mL+3cGMP (isotopically labelled cGMP with a weight 3 units higher than wild type) with the following final concentrations of cGMP in ng/mL: 1, 5, 10, 50, 100, 250, 500, 1000, 2000.
Data were normalized to a high control using the following equation: 100*(Sample—Low Control)/(High Control—Low Control), where the low control is the average of 16 samples treated with 1% DMSO, and the high control is the average of 16 samples treated with 30 μM of Compound Y depicted below. Data were fit using a 4-parameter fit (log(agonist) vs. response variable slope) using GraphPad Prism Software v.5. n=2 for all compounds. […] Compounds failing to elicit a minimum response of 50% are reported as >30 μM. For compounds run in duplicate or n higher than 2, the result herein given is the geometric mean of the several results obtained.
With `CC1(C)C(=O)N(CCO)c2nc(-c3cc(-c4ccon4)n(Cc4ccccc4F)n3)nnc21` [Compound I-4] the EC50 was > 1000 nM. Work on `COc1cc(-c2nc(N)c3c(n2)NC(=O)C3(C)C)nn1Cc1ccccc1F` [Compound I-23] yielded an EC50 of 100 to 1000 nM. With `CC1(C(N)=O)C(=O)Nc2nc(-c3cc(-c4ccon4)n(Cc4ccccc4F)n3)ncc21` (stereo not drawn) [Compound I-16] the EC50 was > 1000 nM. `CC(=O)c1cc(-c2nc(N)c3c(n2)NC(=O)C3(C)C(N)=O)nn1Cc1ccccc1F` (stereo not drawn) [Compound I-20] was tested, and the EC50 was 100 to 1000 nM. Work on `COC(=O)NS(=O)(=O)Nc1nc(-c2cc(-c3ccon3)n(Cc3ccccc3F)n2)nc2c1C(C)(C#N)C(=O)N2` (stereo not drawn) [Compound I-5] yielded an EC50 of 100 to 1000 nM. `CC1(C)C(=O)Nc2nc(-c3cc(-c4ccon4)n(Cc4ccccc4F)n3)nc(NCCO)c21` [Compound I-6] gave an EC50 of 100 to 1000 nM. In the case of `CCOC(=O)C1(C)C(=O)Nc2nc(-c3ccn(Cc4ccccc4F)n3)nc(N)c21` (stereo not drawn) [Compound I-13, ethyl 4-amino-2-(1-(2-fluorobenzyl)-1H-pyrazol-3-yl)-5-methyl-6-oxo-6,7-dihydro-5H-pyrrolo[2,3-d]pyrimidine-5-carboxylate], the EC50 is reported as 100 to 1000 nM. With `OC(Cn1nnc2cnc(-c3cc(-c4ccon4)n(Cc4ccccc4F)n3)nc21)(C(F)(F)F)C(F)(F)F` [Compound I-3] the EC50 was > 1000 nM. In the case of `COc1cc(-c2nc(N)c3c(n2)NC(=O)C3(C)c2nnc(C)o2)nn1Cc1ccccc1F` (stereo not drawn) [Compound I-1, 4-amino-2-(1-(2-fluorobenzyl)-5-methoxy-1H-pyrazol-3-yl)-5-methyl-5-(5-methyl-1,3,4-oxadiazol-2-yl)-5H-pyrrolo[2,3-d]pyrimidin-6(7H)-one], the EC50 is reported as < 100 nM. In the case of `CCOC(=O)C1(C)C(=O)Nc2nc(-c3cc(C(C)=O)n(Cc4ccccc4F)n3)nc(N)c21` (stereo not drawn) [Compound I-19], the EC50 is reported as < 100 nM. `CC1(C)C(=O)Nc2nc(-c3cc(-c4ccon4)n(Cc4ccccc4F)n3)nc(NCC(O)(C(N)=O)C(F)(F)F)c21` (stereo not drawn) [Compound I-8] gave an EC50 of 100 to 1000 nM. `OCCn1nnc2cnc(-c3cc(-c4ccon4)n(Cc4ccccc4F)n3)nc21` [Compound I-2] was tested, and the EC50 was > 1000 nM. In the case of `CC1(C(=O)NCCO)C(=O)Nc2nc(-c3cc(-c4ccon4)n(Cc4ccccc4F)n3)nc(NCCO)c21` (stereo not drawn) [Compound I-7], the EC50 is reported as > 1000 nM. `CCOC(=O)C1(C)C(=O)Nc2nc(-c3cc(-c4ccon4)n(Cc4ccccc4F)n3)ncc21` (stereo not drawn) [Compound I-18] was tested, and the EC50 was 100 to 1000 nM. For `CC1(C(=O)NC2CC2)C(=O)Nc2nc(-c3ccn(Cc4ccccc4F)n3)nc(N)c21` (stereo not drawn) [Compound I-14, 4-amino-N-cyclopropyl-2-(1-(2-fluorobenzyl)-1H-pyrazol-3-yl)-5-methyl-6-oxo-6,7-dihydro-5H-pyrrolo[2,3-d]pyrimidine-5-carboxamide], the EC50 was > 1000 nM.
